Source: PubChem BioAssay (NCI)
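Five concentrations, 48 hours, 96-well plates. GI50 marks 50% less growth. TGI marks complete inhibition of growth.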

Assays:
Experiment in all cases: inhibition of tumour cell growth, NCI panel, 48 h
BT-549 breast = tested on: BT-549 breast
SK-MEL-5 melanoma = tested on: SK-MEL-5 melanoma
M14 melanoma = tested on: M14 melanoma
SF-539 CNS = tested on: SF-539 CNS
NCI-H522 lung = tested on: NCI-H522 lung
UACC-62 melanoma = tested on: UACC-62 melanoma
HCC-2998 colon = tested on: HCC-2998 colon
OVCAR-4 ovarian = tested on: OVCAR-4 ovarian
UACC-257 melanoma = tested on: UACC-257 melanoma
NCI-H460 lung = tested on: NCI-H460 lung
K-562 leukemia = tested on: K-562 leukemia
SN12C renal = tested on: SN12C renal
A498 renal = tested on: A498 renal
HS 578T breast = tested on: HS 578T breast
ACHN renal = tested on: ACHN renal
CAKI-1 renal = tested on: CAKI-1 renal
RXF 393 renal = tested on: RXF 393 renal
IGROV1 ovarian = tested on: IGROV1 ovarian
SF-295 CNS = tested on: SF-295 CNS
TK-10 renal = tested on: TK-10 renal
NCI/ADR-RES ovarian = tested on: NCI/ADR-RES ovarian
LOX IMVI melanoma = tested on: LOX IMVI melanoma
DU-145 prostate = tested on: DU-145 prostate
SW-620 colon = tested on: SW-620 colon
HCT-15 colon = tested on: HCT-15 colon
OVCAR-8 ovarian = tested on: OVCAR-8 ovarian
HL-60(TB) leukemia = tested on: HL-60(TB) leukemia
NCI-H23 lung = tested on: NCI-H23 lung
HOP-62 NSCLC = tested on: HOP-62 NSCLC
786-0 renal = tested on: 786-0 renal
MCF7 breast = tested on: MCF7 breast
KM12 colon = tested on: KM12 colon
MDA-MB-231 breast = tested on: MDA-MB-231 breast
SF-268 CNS = tested on: SF-268 CNS
MDA-MB-435 = tested on: MDA-MB-435
A549 NSCLC = tested on: A549 NSCLC
MOLT-4 leukemia = tested on: MOLT-4 leukemia
SR leukemia = tested on: SR leukemia
NCI-H226 lung = tested on: NCI-H226 lung
U251 CNS = tested on: U251 CNS
RPMI-8226 leukemia = tested on: RPMI-8226 leukemia
COLO 205 colon = tested on: COLO 205 colon
UO-31 renal = tested on: UO-31 renal
CCRF-CEM leukemia = tested on: CCRF-CEM leukemia
SK-OV-3 ovarian = tested on: SK-OV-3 ovarian
SNB-75 CNS = tested on: SNB-75 CNS
SNB-19 CNS = tested on: SNB-19 CNS
PC-3 prostate = tested on: PC-3 prostate
SK-MEL-2 melanoma = tested on: SK-MEL-2 melanoma
HT29 colon = tested on: HT29 colon
MALME-3M melanoma = tested on: MALME-3M melanoma
HOP-92 NSCLC = tested on: HOP-92 NSCLC
OVCAR-5 ovarian = tested on: OVCAR-5 ovarian
OVCAR-3 ovarian = tested on: OVCAR-3 ovarian
T-47D breast = tested on: T-47D breast
HCT-116 colon = tested on: HCT-116 colon
SK-MEL-28 melanoma = tested on: SK-MEL-28 melanoma

With Nc1c(C(=O)c2cccc(C#CCO)c2)cnn1-c1ccc(F)cc1 as the compound, how does the GI50 (BT-549 breast) read?
The GI50 was > 25 µM.

What about the TGI (BT-549 breast) of the same compound?
Its TGI is > 25 µM.

What about the GI50 (SK-MEL-5 melanoma) of the same compound?
Its GI50 is > 25 µM.

What about the TGI (SK-MEL-5 melanoma) of the same compound?
The TGI was > 25 µM.

And the GI50 (M14 melanoma)?
The GI50 was > 25 µM.

What about the TGI (M14 melanoma) of the same compound?
Its TGI is > 25 µM.

What about the GI50 (SF-539 CNS) of the same compound?
The GI50 was > 25 µM.

And the TGI (SF-539 CNS)?
Its TGI is > 25 µM.

What about the GI50 (NCI-H522 lung) of the same compound?
Its GI50 is > 25 µM.

And the TGI (NCI-H522 lung)?
Its TGI is > 25 µM.

And the GI50 (UACC-62 melanoma)?
The GI50 was > 25 µM.

What about the TGI (UACC-62 melanoma) of the same compound?
Its TGI is > 25 µM.

What about the GI50 (HCC-2998 colon) of the same compound?
Its GI50 is > 25 µM.

And the TGI (HCC-2998 colon)?
Its TGI is > 25 µM.

What about the GI50 (OVCAR-4 ovarian) of the same compound?
Its GI50 is > 23.3 µM.

And the TGI (OVCAR-4 ovarian)?
Its TGI is > 25 µM.

What about the GI50 (UACC-257 melanoma) of the same compound?
Its GI50 is > 25 µM.

And the TGI (UACC-257 melanoma)?
The TGI was > 25 µM.

And the GI50 (NCI-H460 lung)?
Its GI50 is > 25 µM.

And the TGI (NCI-H460 lung)?
Its TGI is > 25 µM.

What about the GI50 (K-562 leukemia) of the same compound?
The GI50 was > 25 µM.

And the TGI (K-562 leukemia)?
The TGI was > 25 µM.

What about the GI50 (SN12C renal) of the same compound?
The GI50 was > 25 µM.

What about the TGI (SN12C renal) of the same compound?
Its TGI is > 25 µM.

And the GI50 (A498 renal)?
Its GI50 is > 18.5 µM.

What about the TGI (A498 renal) of the same compound?
Its TGI is > 25 µM.

And the GI50 (HS 578T breast)?
Its GI50 is 5.18 µM.

What about the TGI (HS 578T breast) of the same compound?
The TGI was > 25 µM.

And the GI50 (ACHN renal)?
Its GI50 is > 25 µM.

And the TGI (ACHN renal)?
Its TGI is > 25 µM.

And the GI50 (CAKI-1 renal)?
The GI50 was > 25 µM.

What about the TGI (CAKI-1 renal) of the same compound?
Its TGI is > 25 µM.

And the GI50 (RXF 393 renal)?
Its GI50 is > 25 µM.

And the TGI (RXF 393 renal)?
The TGI was > 25 µM.

What about the GI50 (IGROV1 ovarian) of the same compound?
The GI50 was > 25 µM.

What about the TGI (IGROV1 ovarian) of the same compound?
Its TGI is > 25 µM.

And the GI50 (SF-295 CNS)?
Its GI50 is > 25 µM.

And the TGI (SF-295 CNS)?
The TGI was > 25 µM.

What about the GI50 (TK-10 renal) of the same compound?
Its GI50 is > 25 µM.

What about the TGI (TK-10 renal) of the same compound?
The TGI was > 25 µM.

What about the GI50 (NCI/ADR-RES ovarian) of the same compound?
Its GI50 is > 25 µM.

What about the TGI (NCI/ADR-RES ovarian) of the same compound?
The TGI was > 25 µM.

What about the GI50 (LOX IMVI melanoma) of the same compound?
Its GI50 is > 25 µM.

And the TGI (LOX IMVI melanoma)?
Its TGI is > 25 µM.

And the GI50 (DU-145 prostate)?
The GI50 was > 25 µM.

What about the TGI (DU-145 prostate) of the same compound?
The TGI was > 25 µM.

What about the GI50 (SW-620 colon) of the same compound?
The GI50 was > 25 µM.

What about the TGI (SW-620 colon) of the same compound?
The TGI was > 25 µM.

What about the GI50 (HCT-15 colon) of the same compound?
The GI50 was > 25 µM.

What about the TGI (HCT-15 colon) of the same compound?
The TGI was > 25 µM.

And the GI50 (OVCAR-8 ovarian)?
Its GI50 is > 25 µM.

What about the TGI (OVCAR-8 ovarian) of the same compound?
The TGI was > 25 µM.

And the GI50 (HL-60(TB) leukemia)?
The GI50 was > 25 µM.

What about the TGI (HL-60(TB) leukemia) of the same compound?
The TGI was > 25 µM.

What about the GI50 (NCI-H23 lung) of the same compound?
The GI50 was > 25 µM.

What about the TGI (NCI-H23 lung) of the same compound?
The TGI was > 25 µM.

And the GI50 (HOP-62 NSCLC)?
Its GI50 is > 25 µM.

What about the TGI (HOP-62 NSCLC) of the same compound?
The TGI was > 25 µM.

What about the GI50 (786-0 renal) of the same compound?
Its GI50 is > 25 µM.

What about the TGI (786-0 renal) of the same compound?
The TGI was > 25 µM.

What about the GI50 (MCF7 breast) of the same compound?
The GI50 was > 25 µM.

What about the TGI (MCF7 breast) of the same compound?
Its TGI is > 25 µM.

And the GI50 (KM12 colon)?
The GI50 was > 25 µM.

What about the TGI (KM12 colon) of the same compound?
Its TGI is > 25 µM.

What about the GI50 (MDA-MB-231 breast) of the same compound?
Its GI50 is > 25 µM.

What about the TGI (MDA-MB-231 breast) of the same compound?
Its TGI is > 25 µM.

And the GI50 (SF-268 CNS)?
Its GI50 is > 25 µM.

What about the TGI (SF-268 CNS) of the same compound?
Its TGI is > 25 µM.

And the GI50 (MDA-MB-435)?
Its GI50 is > 25 µM.

What about the TGI (MDA-MB-435) of the same compound?
The TGI was > 25 µM.

And the GI50 (A549 NSCLC)?
Its GI50 is > 25 µM.

What about the TGI (A549 NSCLC) of the same compound?
The TGI was > 25 µM.

And the GI50 (MOLT-4 leukemia)?
The GI50 was > 25 µM.

What about the TGI (MOLT-4 leukemia) of the same compound?
Its TGI is > 25 µM.

What about the GI50 (SR leukemia) of the same compound?
The GI50 was > 25 µM.

What about the TGI (SR leukemia) of the same compound?
The TGI was > 25 µM.

And the GI50 (NCI-H226 lung)?
Its GI50 is > 25 µM.

What about the TGI (NCI-H226 lung) of the same compound?
The TGI was > 25 µM.

And the GI50 (U251 CNS)?
Its GI50 is > 25 µM.

What about the TGI (U251 CNS) of the same compound?
Its TGI is > 25 µM.

And the GI50 (RPMI-8226 leukemia)?
The GI50 was > 25 µM.

What about the TGI (RPMI-8226 leukemia) of the same compound?
The TGI was > 25 µM.

And the GI50 (COLO 205 colon)?
The GI50 was > 25 µM.

And the TGI (COLO 205 colon)?
The TGI was > 25 µM.

And the GI50 (UO-31 renal)?
Its GI50 is > 25 µM.

And the TGI (UO-31 renal)?
The TGI was > 25 µM.

And the GI50 (CCRF-CEM leukemia)?
The GI50 was > 25 µM.

And the TGI (CCRF-CEM leukemia)?
The TGI was > 25 µM.

What about the GI50 (SK-OV-3 ovarian) of the same compound?
Its GI50 is > 25 µM.

And the TGI (SK-OV-3 ovarian)?
The TGI was > 25 µM.

What about the GI50 (SNB-75 CNS) of the same compound?
The GI50 was > 25 µM.

What about the TGI (SNB-75 CNS) of the same compound?
The TGI was > 25 µM.

And the GI50 (SNB-19 CNS)?
Its GI50 is > 25 µM.

What about the TGI (SNB-19 CNS) of the same compound?
The TGI was > 25 µM.

And the GI50 (PC-3 prostate)?
Its GI50 is > 25 µM.

And the TGI (PC-3 prostate)?
The TGI was > 25 µM.

And the GI50 (SK-MEL-2 melanoma)?
The GI50 was > 25 µM.

What about the TGI (SK-MEL-2 melanoma) of the same compound?
Its TGI is > 25 µM.

And the GI50 (HT29 colon)?
Its GI50 is > 25 µM.

What about the TGI (HT29 colon) of the same compound?
The TGI was > 25 µM.

What about the GI50 (MALME-3M melanoma) of the same compound?
The GI50 was > 25 µM.

What about the TGI (MALME-3M melanoma) of the same compound?
The TGI was > 25 µM.

And the GI50 (HOP-92 NSCLC)?
The GI50 was > 13.2 µM.

And the TGI (HOP-92 NSCLC)?
Its TGI is > 25 µM.

And the GI50 (OVCAR-5 ovarian)?
Its GI50 is > 25 µM.

And the TGI (OVCAR-5 ovarian)?
The TGI was > 25 µM.

And the GI50 (OVCAR-3 ovarian)?
The GI50 was > 25 µM.

And the TGI (OVCAR-3 ovarian)?
The TGI was > 25 µM.

And the GI50 (T-47D breast)?
The GI50 was > 25 µM.

What about the TGI (T-47D breast) of the same compound?
The TGI was > 25 µM.

What about the GI50 (HCT-116 colon) of the same compound?
Its GI50 is > 25 µM.

And the TGI (HCT-116 colon)?
The TGI was > 25 µM.

What about the GI50 (SK-MEL-28 melanoma) of the same compound?
The GI50 was > 25 µM.

What about the TGI (SK-MEL-28 melanoma) of the same compound?
Its TGI is > 25 µM.
